Experimental findings from US20060135480A1, “Derivatives of succinic and glutaric acids and analogs thereof useful as inhibitors of phex” (Enobia Pharma, priority 2002, published 2006) are described below.

Structures are written as SMILES.

One assay deals with T1, sPHEX (Homo sapiens, UniProt P78562).
T1 construct: The soluble form of the metallopeptidase PHEX (sPHEX) was purified to homogeneity; made in house
T1 sequence (P78562 53-749 limits assumed): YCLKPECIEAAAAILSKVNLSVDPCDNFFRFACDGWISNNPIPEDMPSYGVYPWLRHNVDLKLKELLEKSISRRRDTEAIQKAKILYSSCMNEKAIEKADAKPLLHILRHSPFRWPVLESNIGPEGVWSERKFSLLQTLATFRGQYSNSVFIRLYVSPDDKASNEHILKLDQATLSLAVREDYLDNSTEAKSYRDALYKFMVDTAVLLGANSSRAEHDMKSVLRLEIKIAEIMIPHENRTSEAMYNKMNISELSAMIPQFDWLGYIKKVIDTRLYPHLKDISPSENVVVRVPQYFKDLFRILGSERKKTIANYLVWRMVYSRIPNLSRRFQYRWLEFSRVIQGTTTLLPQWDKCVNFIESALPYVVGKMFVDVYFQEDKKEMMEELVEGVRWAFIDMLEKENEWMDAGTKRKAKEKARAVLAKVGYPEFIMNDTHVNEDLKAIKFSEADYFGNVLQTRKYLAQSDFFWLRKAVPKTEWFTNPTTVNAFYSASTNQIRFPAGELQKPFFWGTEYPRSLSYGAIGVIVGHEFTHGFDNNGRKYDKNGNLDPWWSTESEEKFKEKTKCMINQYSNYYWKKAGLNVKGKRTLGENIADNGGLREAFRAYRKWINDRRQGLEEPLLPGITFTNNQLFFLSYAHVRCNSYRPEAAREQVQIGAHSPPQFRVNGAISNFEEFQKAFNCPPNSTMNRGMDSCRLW
Briefly: sPHEX inhibitor IC50 determination using a fluorogenic substrate (Abz-GFSDYK-Dnp, S3). The class given is biochemical. The conditions noted are these: fluorogenic substrate 20 μM, 100 ng sPHEX, pH 6.5. The method, then: The soluble form of the metallopeptidase PHEX (sPHEX) was purified to homogeneity according to the methods of Boileau and Crine (WO 00/50580). sPHEX quantity was measured with the Bradford assay (BioRad) using BSA as a standard.
sPHEX activity was determined using a fluorogenic substrate in which an increase of fluorescence was proportional to substrate conversion to products.
S3 was synthesized at Dr. Gilles Lajoie's laboratories (University of Western Ontario, Canada) by standard solid phase peptide synthesis. The fluorescent reaction product was excited at 320 nm to fluoresce at 420 nm. Fluorescence was recorded at 420 nm every five minutes over a one-hour period on a fluorescence plate reader (Perkin-Elmer, HTS-7000) to calculate the initial rate of the reaction. Typically, the reaction was carried out in 200 μl of buffer M (50 mM Mes(NaOH) pH 6.5, 150 mM NaCl) containing 100 ng of purified sPHEX and 20 μM of fluorigenic substrate to initiate the reaction. Enzymatic activity was determined by subtracting either the initial rate of substrate in buffer (solvolysis), or the typical reaction rate in which 5 mM EDTA was added prior to initiating the reaction.
sPHEX inhibitor IC50 determinations were done using the tested inhibitor at various concentrations coming from a serial dilution (usually ranging from 10^−3 M to 10^−12 M) in the reaction described above. IC50 values were calculated using the iterative four parameters non-linear regression formula from the GraphPad™ software (Prism).

Assay [1] relates to primary rat calvaria osteoblasts. The assay can be described thus: Mineralization by 45Ca incorporation in cultured rat calvaria osteoblasts. It is filed as cell-based. The conditions noted are these: fetal rat calvaria cells. The method, then: In general, to show stimulation of mineralization in cultured cells by PHEX inhibitors, cells of osteoblast lineage are incubated in conditions that favors the mineralization process in the absence and the presence of the PHEX inhibiting compound. This cellular model is used to study osteoblasts proliferation and differentiation, and to follow the mineralization process.
Mineralization can be monitored by standard techniques such as von Kossa staining or ^45Ca incorporation in the extracellular matrix.
For example, cells were enzymatically isolated from the calvaria of 21-day old Wistar rat fetuses by sequential digestion with collagenase as described previously (Bellows et al., 1986). Cells obtained from the last four of the five digestion steps were plated in T-75 flasks in α-MEM containing 15% FBS (Cansera) and antibiotics comprising 100 μg/ml penicillin G (Sigma-Aldrich), 50 μg/ml gentamycin (Life Technologies), and 0.3 μg/ml fungizone (Life Technologies). […]
At day 18, 21 and 25 of rat calvaria osteoblasts culture, mineralization was determined by ^45Ca incorporation assay as described previously (Ecarot et Desbarats, 1999). […] Cell layers were solubilized in 12.5% trichloroacetic acid and aliquots counted for radioactivity.

Regarding `O=C(O)CC(CC(=O)NO)C(=O)NCCc1ccc(-c2ccccc2)cc1` (stereo not drawn) [Example 126, 3-(2-Biphenyl-4-yl-ethylcarbamoyl)4-hydroxycarbamoyl-butyric acid], 17 nM corresponded to half-maximal inhibition against sPHEX (IC50). Further, the “45Ca incorporation by the cells (mineralization)” value in assay [1] (1×10^−5 M (high dose)) is on record as “reduced significantly”; in assay [1] (lower concentrations, low dose (10^−6 M)) it was “significantly stimulated”.
